This is an account of results in ChEMBL document CHEMBL1152282, “SAR profiles of spirocyclic nicotinamide derived selective HDAC1/HDAC2 inhibitors (SHI-1:2)” (Bioorg Med Chem Lett, 2008).

Data set [1] can be described thus: Half life in dog at 0.90 mg/kg, iv. Also on record: dose 0.9 mg/kg, route intravenous. To be noted: in vivo, 0.9 mg/kg. The class given is ADME, organism-based, Canis lupus familiaris.
A short description of data set [2]: Plasma clearance in dog at 0.90 mg/kg, iv. In kind it is ADME, organism-based, Canis lupus familiaris. Also on record: dose 0.9 mg/kg, route intravenous. To be noted: 0.9 mg/kg.
Data set [3] is described as follows: Half life in rat at 2.0 mg/kg, iv. In kind it is ADME, organism-based. Also on record: dose 2 mg/kg, route intravenous. To be noted: in vivo.
Data set [4] can be described thus: Oral bioavailability in rat at 4.0 mg/kg. The class given is ADME, organism-based. Conditions: in vivo.
Data set [5] is described as follows: Cmax in mouse at 150 mg/kg, po. The class given is ADME, organism-based. Also on record: dose 150 mg/kg, route oral. Conditions: in vivo.
Data set [6] is described as follows: AUC in mouse at 150 mg/kg, po. In kind it is ADME, organism-based. Also on record: dose 150 mg/kg, route oral. To be noted: plasma.
A short description of data set [7]: Plasma clearance in rat at 2.0 mg/kg, iv. In kind it is ADME, organism-based. Also on record: dose 2 mg/kg, route intravenous.
Data set [8] can be described thus: Volume of distribution at steady state in dog at 0.50 mg/kg, iv. Also on record: dose 0.5 mg/kg, route intravenous. To be noted: in vivo, 0.5 mg/kg, read-out: Vdss. In kind it is ADME, organism-based, Canis lupus familiaris.
The nature of data set [9]: Volume of distribution at steady state in rat at 2.0 mg/kg, iv. The class given is ADME, organism-based. More on the design: dose 2 mg/kg, route intravenous. To be noted: in vivo, read-out: Vdss.
A short description of data set [10]: Half life in dog at 0.50 mg/kg, iv. The class given is ADME, organism-based, Canis lupus familiaris. More on the design: dose 0.5 mg/kg, route intravenous. Conditions: in vivo, 0.5 mg/kg.
The nature of data set [11]: Plasma clearance in dog at 0.50 mg/kg, iv. In kind it is ADME, organism-based, Canis lupus familiaris. Also on record: dose 0.5 mg/kg, route intravenous. Conditions: 0.5 mg/kg.
Data set [12] can be described thus: Oral bioavailability in dog at 1.0 mg/kg. In kind it is ADME, organism-based, Canis lupus familiaris. Conditions: in vivo.
The nature of data set [13]: Plasma concentration in human HCT116 cells xenografted CD1 mouse at 300 mg/kg, po after 6 hrs. The class given is ADME, organism-based, HCT-116. Also on record: dose 300 mg/kg, route oral.
Data set [14] has as its system Canis familiaris. Briefly: Plasma concentration in CV dog at 3 mg/kg, iv. Conditions: in vivo. In kind it is ADME, organism-based, Canis lupus familiaris. More on the design: dose 3 mg/kg, route intravenous.
A short description of data set [15]: Distribution coefficient, log D of the compound. The class given is physicochemical. To be noted: octanol/water.
Data set [16] relates to Canis familiaris. Briefly: Plasma concentration in CV dog at 10 mg/kg, iv. In kind it is ADME, organism-based, Canis lupus familiaris. More on the design: dose 10 mg/kg, route intravenous. Conditions: in vivo.
The nature of data set [17]: Plasma concentration in human HCT116 cells xenografted CD1 mouse at 150 mg/kg, po after 6 hrs. The class given is ADME, organism-based, HCT-116. More on the design: dose 150 mg/kg, route oral.
The nature of data set [18]: Plasma concentration in human HCT116 cells xenografted CD1 mouse at 15 mg/kg, ip after 48 hrs. In kind it is ADME, organism-based, HCT-116. More on the design: dose 15 mg/kg, route intraperitoneal.
Data set [19] can be described thus: Plasma concentration in human HCT116 cells xenografted CD1 mouse at 15 mg/kg, ip after 72 hrs. In kind it is ADME, organism-based, HCT-116. Also on record: dose 15 mg/kg, route intraperitoneal.
The nature of data set [20]: Plasma concentration in human HCT116 cells xenografted CD1 mouse at 300 mg/kg, po after 24 hrs. In kind it is ADME, organism-based, HCT-116. Also on record: dose 300 mg/kg, route oral.
Data set [21] can be described thus: Solubility of the compound. The class given is physicochemical.
A short description of data set [22]: Plasma concentration in human HCT116 cells xenografted CD1 mouse at 15 mg/kg, ip after 6 hrs. In kind it is ADME, organism-based, HCT-116. More on the design: dose 15 mg/kg, route intraperitoneal.
Data set [23] in a line: Plasma concentration in human HCT116 cells xenografted CD1 mouse at 150 mg/kg, po after 24 hrs. The class given is ADME, organism-based, HCT-116. More on the design: dose 150 mg/kg, route oral.
Data set [24] is described as follows: Plasma concentration in human HCT116 cells xenografted CD1 mouse at 15 mg/kg, ip after 24 hrs. The class given is ADME, organism-based, HCT-116. More on the design: dose 15 mg/kg, route intraperitoneal.

Values after ≈ are worked out from the molar mass of the structure shown.

Regarding `C[C@H]1CN(c2ccc(C(=O)Nc3ccccc3N)cn2)CCN1C(=O)OCc1ccccc1`, the half-life is 5.6 h in data set [1] and 0.93 h in [3]. In addition, the clearance in [2] came out at 7.4 mL/min/kg. Besides, in data set [4], the bioavailability worked out at 37%.

In turn, `Nc1ccc(-c2cccs2)cc1NC(=O)c1ccc(N2CCC3(CCNC3=O)CC2)nc1` gave a Cmax in data set [5] of 34 µM. The AUC in data set [6] is 88 µM·h.

As for `Nc1ccc(-c2cccs2)cc1NC(=O)c1ccc(N2CCC3(CC2)CNC(=O)N3)nc1`, the peak level in [5] (Cmax) was 2 µM. The compound further returned an AUC in data set [6] of 10 µM·h.

As to `Nc1ccc(-c2cccs2)cc1NC(=O)c1ccc(N2CCC3(CC2)COC(=O)N3)nc1`, the figures for the clearance in data set [7] and in [11] were 7.4 mL/min/kg and 9.8 mL/min/kg, respectively. Moreover, the Cmax in data set [5] worked out at 6 µM. The Vd came to 2.3 L/kg in [8] and 0.47 L/kg in [9]. For the same compound, the values for the half-life in data set [10] and in data set [3] were 6.8 h and 2.6 h, respectively. In [6], the AUC was determined as 14 µM·h. For the same compound, the bioavailability stood at 18% in [12] and 13% in [4].

On to `Nc1ccc(-c2cccs2)cc1NC(=O)c1ccc(N2CCC3(CCNC3)CC2)nc1`, for which the clearance was determined as 31 mL/min/kg in data set [7] and 5.9 mL/min/kg in data set [11]. Besides, the concentration at 6 h in [13] turned out to be 21 µM; in data set [17], 11 µM; in [22] it was 3.4 µM. The Vd worked out at 3.3 L/kg in data set [8] and 8.6 L/kg in data set [9]. Besides, the concentration came out at 6 µM in the data set with Canis familiaris [14] and 30 µM with Canis familiaris [16]. Also, the logD in [15] is 1.45. Besides, the concentration at 48 h in data set [18] is 0.05 µM. The concentration at 72 h in data set [19] was 0.03 µM. Further, the concentration at 24 h came to 0.78 µM in data set [20], 0.22 µM in data set [23] and 0.32 µM in data set [24]. Further, the half-life in [10] is 6.7 h; in data set [3] it was 6.2 h. Also, the solubility in [21] amounted to 186 µM (≈ 80.6 µg/mL). In addition, the bioavailability in data set [12] was 100%; in data set [4], 23%.
